Patent publication US20110053916A1 (Vertex Pharmaceuticals Incorporated, priority 2009, published 2011)

Each molecule was assayed against T1, PknB (Mycobacterium tuberculosis, UniProt P9WI81) (assay: biochemical). Details: 3 nM PknB, 6 uM GarA, 3 μM ATP, 30 min; competitive tight-binding fit; several symbols in a cell = repeat determinations.
T1 construct: made in house
T1 sequence (P9WI81 whole entry): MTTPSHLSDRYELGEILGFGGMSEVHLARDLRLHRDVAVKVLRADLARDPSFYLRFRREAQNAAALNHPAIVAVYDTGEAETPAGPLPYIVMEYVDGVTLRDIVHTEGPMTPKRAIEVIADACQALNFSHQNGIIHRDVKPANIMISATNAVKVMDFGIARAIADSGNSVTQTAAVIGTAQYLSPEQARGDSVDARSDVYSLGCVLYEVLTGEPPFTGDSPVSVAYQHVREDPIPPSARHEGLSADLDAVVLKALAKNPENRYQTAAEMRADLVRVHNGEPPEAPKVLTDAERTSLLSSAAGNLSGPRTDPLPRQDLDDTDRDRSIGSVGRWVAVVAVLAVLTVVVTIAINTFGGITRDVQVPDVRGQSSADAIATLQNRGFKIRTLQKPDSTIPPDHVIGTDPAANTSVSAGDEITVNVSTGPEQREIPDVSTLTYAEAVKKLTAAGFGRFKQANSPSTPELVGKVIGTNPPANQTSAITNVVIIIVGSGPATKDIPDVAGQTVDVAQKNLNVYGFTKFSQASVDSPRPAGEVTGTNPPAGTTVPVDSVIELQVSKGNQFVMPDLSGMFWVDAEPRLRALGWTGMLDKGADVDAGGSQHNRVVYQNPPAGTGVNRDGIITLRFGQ
Set-up: species or system M. tuberculosis
For `NS(=O)(=O)c1cc(-c2ncc(Cl)c(Nc3cc(C4CC4)[nH]n3)n2)ccc1Cl` [Compound 58, 2-chloro-5-[5-chloro-4-[(5-cyclopropyl-1H-pyrazol-3-yl)amino]-pyrimidin-2-yl]-benzenesulfonamide], the “Ki Values” was “B, C, C”. With `N#CCc1ccc(Nc2ncc(Cl)c(Nc3cc(C4CC4)[nH]n3)n2)cc1` [Compound 59, 2-[4-[[5-chloro-4-[(5-cyclopropyl-1H-pyrazol-3-yl)amino]-pyrimidin-2-yl]amino]phenyl]acetonitrile] the “Ki Values” was “B**, B*, B*”. `NC(=O)c1ccc(Nc2nccc(Nc3cc(C4CC4)n[nH]3)n2)cc1` [Compound 60, 4-[[4-[(5-cyclopropyl-2H-pyrazol-3-yl)amino]pyrimidin-2-yl]amino]benzamide] was tested, and the “Ki Values” was “C, C, D”. In the case of `O=S(=O)(NCCO)c1ccc(-c2ncc(Cl)c(Nc3cc(C4CC4)[nH]n3)n2)cc1` [Compound 61, 4-[5-chloro-4-[(5-cyclopropyl-1H-pyrazol-3-yl)amino]-pyrimidin-2-yl]-N-(2-hydroxyethyl)benzenesulfonamide], the “Ki Values” is reported as “A, C, D”. With `c1cc(Nc2cc(C3CC3)[nH]n2)nc(N2CCCCC2)n1` [Compound 64, N-(5-cyclopropyl-1H-pyrazol-3-yl)-2-(1-piperidyl)pyrimidin-4-amine] the “Ki Values” was “A*, B**”. For `c1cc(Nc2cc(C3CC3)[nH]n2)nc(N2CCC(N3CCCCC3)CC2)n1` [Compound 65, N-(5-cyclopropyl-1H-pyrazol-3-yl)-2-[4-(1-piperidyl)-1-piperidyl]-pyrimidin-4-amine], the “Ki Values” was “C, D, D”. With `COc1cnc(N2CCCCC2)nc1Nc1cc(C2CC2)[nH]n1` [Compound 68, N-(5-cyclopropyl-1H-pyrazol-3-yl)-5-methoxy-2-(1-piperidyl)pyrimidin-4-amine] the “Ki Values” was “A, B**”. With `CC(C)(O)c1ccc(-c2ncc(Cl)c(Nc3cc(C4CC4)[nH]n3)n2)s1` [Compound 87, 2-(5-(5-chloro-4-(5-cyclopropyl-1H-pyrazol-3-ylamino)pyrimidin-2-yl)thiophen-2-yl)propan-2-ol] the “Ki Values” was “A**, A*”. `O=S(=O)(NCCO)c1cccc(-c2ncc(Cl)c(Nc3cc(C4CC4)[nH]n3)n2)c1` [Compound 95, 3-[5-chloro-4-[(5-cyclopropyl-1H-pyrazol-3-yl)amino]-pyrimidin-2-yl]-N-(2-hydroxyethyl)benzenesulfonamide] was tested, and the “Ki Values” was “A*, A”. With `C#Cc1cnc(Nc2ccc(CC#N)cc2)nc1Nc1cc(C2CC2)[nH]n1` [Compound 101, 2-(4-(4-(5-Cyclopropyl-1H-pyrazol-3-ylamino)-5-ethynylpyrimidin-2-ylamino)phenyl)acetonitrile] the “Ki Values” was “A*, A*, A”. In the case of `O=C(NC1CCCCC1)c1nccc(Nc2cc(C3CC3)n[nH]2)n1` [Compound 109, N-cyclohexyl-4-[(5-cyclopropyl-2H-pyrazol-3-yl)amino]pyrimidine-2-carboxamide], the “Ki Values” is reported as “B, B*”. `CC(=O)c1ccc(-c2ncc(Cl)c(Nc3cc(C4CC4)[nH]n3)n2)s1` [Compound 116, 1-(5-(5-chloro-4-(5-cyclopropyl-1H-pyrazol-3-ylamino)pyrimidin-2-yl)thiophen-2-yl)ethanone] was tested, and the “Ki Values” was “A**, A*”.

Same assay, conditions: 3 nM PknB, 6 uM GarA, 3 μM ATP, 30 min; competitive tight-binding fit; several symbols in a cell = repeat determinations; read-out: Ki Values
For `Oc1cnc(-c2ccccc2)nc1Nc1cc(C2CC2)[nH]n1` [Compound 55, 4-(5-cyclopropyl-1H-pyrazol-3-ylamino)-2-phenylpyrimidin-5-ol], the Ki was 1000 to 2000 nM. `CC(C)(C)NS(=O)(=O)C/C=C/c1nccc(Nc2cc(C3CC3)[nH]n2)n1` [Compound 56, 3-[4-[(5-cyclopropyl-1H-pyrazol-3-yl)amino]pyrimidin-2-yl]-N-tert-butyl-prop-2-ene-1-sulfonamide] was tested, and the Ki was 1000 to 2000 nM. `O=C(O)c1ccc(Nc2nccc(Nc3cc(C4CC4)n[nH]3)n2)cc1` [Compound 57, 4-[[4-[(5-cyclopropyl-2H-pyrazol-3-yl)amino]pyrimidin-2-yl]amino]benzoic acid] was tested, and the Ki was 100 to 500 nM. Molecule `Clc1cnc(Nc2ccc3[nH]ncc3c2)nc1Nc1cc(C2CC2)[nH]n1` [Compound 62, 5-chloro-N4-(5-cyclopropyl-1H-pyrazol-3-yl)-N2-(1H-indazol-5-yl)pyrimidine-2,4-diamine] has a Ki of over 4000 nM. `COCc1cnc(N2CCN(C)CC2)nc1Nc1cc(C2CC2)[nH]n1` [Compound 69, N-(5-cyclopropyl-1H-pyrazol-3-yl)-5-(methoxymethyl)-2-(4-methylpiperazin-1-yl)-pyrimidin-4-amine] gave a Ki of over 4000 nM. `COCc1cnc(N2CCCCC2)nc1Nc1cc(C2CC2)[nH]n1` [Compound 70, N-(5-cyclopropyl-1H-pyrazol-3-yl)-5-(methoxymethyl)-2-(1-piperidyl)pyrimidin-4-amine] was tested, and the Ki was over 4000 nM. In the case of `COCc1cnc(N2CCC(N3CCCCC3)CC2)nc1Nc1cc(C2CC2)[nH]n1` [Compound 71, N-(5-cyclopropyl-1H-pyrazol-3-yl)-5-(methoxymethyl)-2-[4-(1-piperidyl)-1-piperidyl]-pyrimidin-4-amine], the Ki is reported as 1000 to 2000 nM. With `CCCc1cnc(N2CCN(C)CC2)nc1Nc1cc(C2CC2)[nH]n1` [Compound 72, N-(5-cyclopropyl-1H-pyrazol-3-yl)-2-(4-methylpiperazin-1-yl)-5-propyl-pyrimidin-4-amine] the Ki was over 4000 nM. With `O=C(O)c1cccc(Nc2ncc(Cl)c(Nc3cc(C4CC4)[nH]n3)n2)c1` [Compound 73, 3-[[5-chloro-4-[(5-cyclopropyl-1H-pyrazol-3-yl)amino]-pyrimidin-2-yl]amino]benzoic acid] the Ki was 100 to 500 nM. For `NCCNS(=O)(=O)c1ccc(-c2ncc(Cl)c(Nc3cc(C4CC4)[nH]n3)n2)s1` [Compound 75, N-(2-aminoethyl)-5-(5-chloro-4-(5-cyclopropyl-1H-pyrazol-3-ylamino)pyrimidin-2-yl)thiophene-2-sulfonamide], the Ki was 1 to 10 nM. Work on `Cc1cc(Nc2ccnc(Nc3ccc(S(N)(=O)=O)cc3)n2)[nH]n1` [Compound 76, 4-[[4-[(5-methyl-2H-pyrazol-3-yl)amino]pyrimidin-2-yl]amino]benzenesulfonamide] yielded a Ki of 10 to 50 nM. `NS(=O)(=O)c1cccc(Nc2nccc(Nc3cc(C4CC4)n[nH]3)n2)c1` [Compound 82] showed a Ki of 50 to 100 nM. Work on `N#Cc1ccc(Nc2ncc(Cl)c(Nc3cc(C4CC4)[nH]n3)n2)cc1` [Compound 84, 4-[[5-chloro-4-[(5-cyclopropyl-1H-pyrazol-3-yl)amino]-pyrimidin-2-yl]amino]benzonitrile] yielded a Ki of 10 to 50 nM. `C#Cc1cnc(-c2ccc(CC#N)cc2)nc1Nc1cc(C2CC2)[nH]n1` [Compound 85, 2-(4-(4-(5-cyclopropyl-1H-pyrazol-3-ylamino)-5-ethynylpyrimidin-2-yl)phenyl)acetonitrile] was tested, and the Ki was 10 to 50 nM. For `N#Cc1cccc(Nc2ncc(Cl)c(Nc3cc(C4CC4)[nH]n3)n2)c1` [Compound 89, 3-[[5-chloro-4-[(5-cyclopropyl-1H-pyrazol-3-yl)amino]-pyrimidin-2-yl]amino]benzonitrile], the Ki was 100 to 500 nM. For `N#CCc1ccc(-c2ncc(N)c(Nc3cc(C4CC4)[nH]n3)n2)cc1` [Compound 92, 2-(4-(5-amino-4-(5-cyclopropyl-1H-pyrazol-3-ylamino)pyrimidin-2-yl)phenyl)acetonitrile], the Ki was 10 to 50 nM. For `CC(=O)NCCNS(=O)(=O)c1cccc(-c2ncc(Cl)c(Nc3cc(C4CC4)[nH]n3)n2)c1` [Compound 96, N-[2-[[3-[5-chloro-4-[(5-cyclopropyl-1H-pyrazol-3-yl)amino]-pyrimidin-2-yl]phenyl]sulfonylamino]ethyl]acetamide], the Ki was 10 to 50 nM. `CN(C)CCNS(=O)(=O)c1cccc(-c2ncc(Cl)c(Nc3cc(C4CC4)[nH]n3)n2)c1` [Compound 97, 3-[5-chloro-4-[(5-cyclopropyl-1H-pyrazol-3-yl)amino]-pyrimidin-2-yl]-N-(2-dimethylaminoethyl)benzenesulfonamide] showed a Ki of 10 to 50 nM. For `Nc1cccc(Nc2nccc(Nc3cc(C4CC4)n[nH]3)n2)c1` [Compound 100, N-(3-aminophenyl)-N′-(5-cyclopropyl-2H-pyrazol-3-yl)-pyrimidine-2,4-diamine], the Ki was 100 to 500 nM. Work on `CC(C)(C)NS(=O)(=O)c1cccc(-c2ncc(O)c(Nc3cc(C4CC4)n[nH]3)n2)c1` [Compound 102, N-tert-butyl-3-(4-(3-cyclopropyl-1H-pyrazol-5-ylamino)-5-hydroxypyrimidin-2-yl)benzenesulfonamide] yielded a Ki of 50 to 100 nM. Work on `C#Cc1cnc(-c2cccc(S(N)(=O)=O)c2)nc1Nc1cc(C2CC2)[nH]n1` [Compound 110, 3-(4-(5-cyclopropyl-1H-pyrazol-3-ylamino)-5-ethynylpyrimidin-2-yl)benzene sulfonamide] yielded a Ki of 10 to 50 nM. Molecule `CC(=O)NCCNS(=O)(=O)c1ccc(-c2ncc(Cl)c(Nc3cc(C4CC4)[nH]n3)n2)s1` [Compound 118, N-(2-(5-(5-chloro-4-(5-cyclopropyl-1H-pyrazol-3-ylamino)pyrimidin-2-yl)thiophene-2-sulfonamido)ethyl)acetamide] has a Ki of 10 to 50 nM. Molecule `C#Cc1cnc(-c2ccc(C(=C)C)s2)nc1Nc1cc(C2CC2)n[nH]1` [Compound 119, N-(5-cyclopropyl-2H-pyrazol-3-yl)-5-ethynyl-2-(5-isopropenyl-2-thienyl)-pyrimidin-4-amine] has a Ki of 10 to 50 nM. `NS(=O)(=O)c1ccccc1Nc1nccc(Nc2cc(C3CC3)[nH]n2)n1` [Compound 120, 2-[[4-[(5-cyclopropyl-1H-pyrazol-3-yl)amino]pyrimidin-2-yl]amino]benzenesulfonamide] showed a Ki of 100 to 500 nM. Work on `NS(=O)(=O)c1ccc(-c2ncc(Cl)c(Nc3cc(C4CC4)[nH]n3)n2)cc1` [Compound 121, 4-[5-chloro-4-[(5-cyclopropyl-1H-pyrazol-3-yl)amino]-pyrimidin-2-yl]benzenesulfonamide] yielded a Ki of 10 to 50 nM. For `C#Cc1cnc(-c2cccc(S(=O)(=O)NCCO)c2)nc1Nc1cc(C2CC2)[nH]n1` [Compound 122, 3-(4-(3-Cyclopropyl-1H-pyrazol-5-ylamino)-5-ethynylpyrimidin-2-yl)-N-(2-hydroxyethyl)benzene sulfonamide], the Ki was 10 to 50 nM. With `NC(=O)c1cccc(Nc2nccc(Nc3cc(C4CC4)[nH]n3)n2)c1` [Compound 125, 3-[[4-[(5-cyclopropyl-1H-pyrazol-3-yl)amino]pyrimidin-2-yl]amino]benzamide] the Ki was 500 to 1000 nM.
